Measured values: PubChem BioAssay (NCI)
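Briefly, cells in 96-well plates were exposed to five compound concentrations for 48 h, and endpoints were estimated by linear interpolation. GI50 is the concentration that inhibits growth by half. At the TGI there is no net growth.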

How the values were obtained:
Experiment in all cases: growth of human tumour cells (NCI), 48 h; in the data active means GI50 below about 0.43 µM; inactive means the rest
SNB-75 CNS = test system: SNB-75 CNS
U251 CNS = test system: U251 CNS
NCI-H226 lung = test system: NCI-H226 lung
MCF7 breast = test system: MCF7 breast
HL-60(TB) leukemia = test system: HL-60(TB) leukemia
SK-OV-3 ovarian = test system: SK-OV-3 ovarian
786-0 renal = test system: 786-0 renal
LOX IMVI melanoma = test system: LOX IMVI melanoma
CAKI-1 renal = test system: CAKI-1 renal
HOP-62 NSCLC = test system: HOP-62 NSCLC
SK-MEL-28 melanoma = test system: SK-MEL-28 melanoma
UO-31 renal = test system: UO-31 renal
A498 renal = test system: A498 renal
UACC-62 melanoma = test system: UACC-62 melanoma
MDA-MB-435 = test system: MDA-MB-435
OVCAR-4 ovarian = test system: OVCAR-4 ovarian
SW-620 colon = test system: SW-620 colon
SNB-19 CNS = test system: SNB-19 CNS
HCT-15 colon = test system: HCT-15 colon
HCC-2998 colon = test system: HCC-2998 colon
IGROV1 ovarian = test system: IGROV1 ovarian
HCT-116 colon = test system: HCT-116 colon
TK-10 renal = test system: TK-10 renal
SK-MEL-2 melanoma = test system: SK-MEL-2 melanoma
M14 melanoma = test system: M14 melanoma
CCRF-CEM leukemia = test system: CCRF-CEM leukemia
HS 578T breast = test system: HS 578T breast
A549 NSCLC = test system: A549 NSCLC
MOLT-4 leukemia = test system: MOLT-4 leukemia
SK-MEL-5 melanoma = test system: SK-MEL-5 melanoma
SN12C renal = test system: SN12C renal
UACC-257 melanoma = test system: UACC-257 melanoma
NCI/ADR-RES ovarian = test system: NCI/ADR-RES ovarian
COLO 205 colon = test system: COLO 205 colon
T-47D breast = test system: T-47D breast
RPMI-8226 leukemia = test system: RPMI-8226 leukemia
BT-549 breast = test system: BT-549 breast
OVCAR-5 ovarian = test system: OVCAR-5 ovarian
NCI-H460 lung = test system: NCI-H460 lung
OVCAR-3 ovarian = test system: OVCAR-3 ovarian
MDA-MB-231 breast = test system: MDA-MB-231 breast
PC-3 prostate = test system: PC-3 prostate
KM12 colon = test system: KM12 colon
K-562 leukemia = test system: K-562 leukemia
ACHN renal = test system: ACHN renal
NCI-H522 lung = test system: NCI-H522 lung
NCI-H23 lung = test system: NCI-H23 lung
HOP-92 NSCLC = test system: HOP-92 NSCLC
RXF 393 renal = test system: RXF 393 renal
DU-145 prostate = test system: DU-145 prostate
SR leukemia = test system: SR leukemia
SF-295 CNS = test system: SF-295 CNS
HT29 colon = test system: HT29 colon
MALME-3M melanoma = test system: MALME-3M melanoma
SF-539 CNS = test system: SF-539 CNS
SF-268 CNS = test system: SF-268 CNS
OVCAR-8 ovarian = test system: OVCAR-8 ovarian

C[C@@H](CS(C)(=O)=O)Nc1ncc2cc(Oc3ccc(F)cc3F)c(=O)n(C)c2n1
> 25 µM: TGI (SNB-75 CNS) | TGI (U251 CNS) | TGI (NCI-H226 lung) | TGI (MCF7 breast) | TGI (HL-60(TB) leukemia) | TGI (SK-OV-3 ovarian) | TGI (786-0 renal) | TGI (LOX IMVI melanoma) | TGI (CAKI-1 renal) | TGI (HOP-62 NSCLC) | TGI (SK-MEL-28 melanoma) | TGI (UO-31 renal) | TGI (A498 renal) | TGI (UACC-62 melanoma) | TGI (MDA-MB-435) | TGI (OVCAR-4 ovarian) | TGI (SW-620 colon) | TGI (SNB-19 CNS) | TGI (HCT-15 colon) | TGI (HCC-2998 colon) | TGI (IGROV1 ovarian) | TGI (HCT-116 colon) | TGI (TK-10 renal) | TGI (SK-MEL-2 melanoma) | TGI (M14 melanoma) | TGI (CCRF-CEM leukemia) | TGI (HS 578T breast) | TGI (A549 NSCLC) | TGI (MOLT-4 leukemia) | TGI (SK-MEL-5 melanoma) | TGI (SN12C renal) | TGI (UACC-257 melanoma) | TGI (NCI/ADR-RES ovarian) | TGI (COLO 205 colon) | TGI (T-47D breast) | TGI (RPMI-8226 leukemia) | TGI (BT-549 breast) | TGI (OVCAR-5 ovarian) | TGI (NCI-H460 lung) | TGI (OVCAR-3 ovarian) | TGI (MDA-MB-231 breast) | TGI (PC-3 prostate) | TGI (KM12 colon) | TGI (K-562 leukemia) | TGI (ACHN renal) | TGI (NCI-H522 lung) | TGI (NCI-H23 lung) | TGI (HOP-92 NSCLC) | TGI (RXF 393 renal) | TGI (DU-145 prostate) | TGI (SR leukemia) | TGI (SF-295 CNS) | TGI (HT29 colon) | TGI (MALME-3M melanoma) | TGI (SF-539 CNS) | TGI (SF-268 CNS) | TGI (OVCAR-8 ovarian)
inactive: GI50 (SNB-75 CNS) > 25 µM | GI50 (U251 CNS) > 25 µM | GI50 (NCI-H226 lung) > 25 µM | GI50 (MCF7 breast) > 25 µM | GI50 (HL-60(TB) leukemia) > 25 µM | GI50 (SK-OV-3 ovarian) > 25 µM | GI50 (786-0 renal) > 25 µM | GI50 (LOX IMVI melanoma) > 25 µM | GI50 (CAKI-1 renal) > 25 µM | GI50 (HOP-62 NSCLC) > 25 µM | GI50 (SK-MEL-28 melanoma) > 25 µM | GI50 (UO-31 renal) > 25 µM | GI50 (A498 renal) > 25 µM | GI50 (UACC-62 melanoma) > 25 µM | GI50 (MDA-MB-435) > 25 µM | GI50 (OVCAR-4 ovarian) > 25 µM | GI50 (SW-620 colon) > 25 µM | GI50 (SNB-19 CNS) > 25 µM | GI50 (HCT-15 colon) > 25 µM | GI50 (HCC-2998 colon) > 25 µM | GI50 (IGROV1 ovarian) > 25 µM | GI50 (HCT-116 colon) > 25 µM | GI50 (TK-10 renal) > 25 µM | GI50 (SK-MEL-2 melanoma) > 25 µM | GI50 (M14 melanoma) > 25 µM | GI50 (CCRF-CEM leukemia) > 25 µM | GI50 (HS 578T breast) > 25 µM | GI50 (A549 NSCLC) > 25 µM | GI50 (MOLT-4 leukemia) > 25 µM | GI50 (SK-MEL-5 melanoma) > 25 µM | GI50 (SN12C renal) > 25 µM | GI50 (UACC-257 melanoma) > 25 µM | GI50 (NCI/ADR-RES ovarian) > 25 µM | GI50 (COLO 205 colon) > 25 µM | GI50 (T-47D breast) > 25 µM | GI50 (RPMI-8226 leukemia) > 25 µM | GI50 (BT-549 breast) > 25 µM | GI50 (OVCAR-5 ovarian) > 25 µM | GI50 (NCI-H460 lung) > 25 µM | GI50 (OVCAR-3 ovarian) > 25 µM | GI50 (MDA-MB-231 breast) > 25 µM | GI50 (PC-3 prostate) > 25 µM | GI50 (KM12 colon) > 25 µM | GI50 (K-562 leukemia) > 25 µM | GI50 (ACHN renal) > 25 µM | GI50 (NCI-H522 lung) > 25 µM | GI50 (NCI-H23 lung) > 25 µM | GI50 (HOP-92 NSCLC) > 6.75 µM | GI50 (RXF 393 renal) > 25 µM | GI50 (DU-145 prostate) > 25 µM | GI50 (SR leukemia) > 25 µM | GI50 (SF-295 CNS) > 25 µM | GI50 (HT29 colon) > 25 µM | GI50 (MALME-3M melanoma) > 25 µM | GI50 (SF-539 CNS) > 25 µM | GI50 (SF-268 CNS) > 25 µM | GI50 (OVCAR-8 ovarian) > 25 µM
